This note sets out measurements from patent EP0007880B1, “Medicines containing as active ingredients compounds of the benzene-sulfone type; compounds of this type and process for their preparation” (CHOAY S.A., priority 1978, dated 1980).

One series has as its system rats Wistar mâles. Description: Normolipemic and/or hypoglycemic activity in Triton W.R.-induced hyperlipidemia in fasted rats. It counts as in vivo. Also on record: Cholestérol Total / Cholestérol Estérifié / Trigly-cérides: unit not given here. As to conditions: fasted rats given Triton W.R. 200mg/kg i.v.; for Cholestérol Estérifié / Cholestérol Total / Glucose / Lipides totaux / Trigly-cérides: product given simultaneously, i.p. 100 mg/kg or oral 500 mg/kg (route not stated per product), blood sampled six hours later; for Cholestérol Rapport E/T: ratio esterified/total cholesterol, product i.p. 100 mg/kg or oral 500 mg/kg, six hours later. The protocol: Les essais sont réalisés sur des groupes de 5 rats Wistar mâles (150 à 175g). Les produits testés sont administrés soit par voie intrapéritonéale, à raison de 100 mg/kg dans du soluté isotonique, soit par voie orale, en solution aqueuse à 3% de gomme adragante (1 ml/100g de poids corporel) en quantité correspondant à 500 mg/kg.
Pour ces essais, on provoque une hyperlipidémie chez les animaux au moyen du produit commercialisé par la Société ROHM et HAAS sous le nom de Triton W.R. Chez le rat à jeun, l'injection intraveineuse de Triton entraine une hyperlipidémie particulièrement nette pour les triglycérides .et de façon moindre pour les lipides totaux.
Cette hyperlipidémie est combattue par l'action des substances actives selon l'invention.
Le protocole de l'essai est le suivant. Les rats sont mis à jeûner pendant 18 heures. Le Triton W.R. est administré par voie intraveineuse en solution aqueuse à 10% à raison de 200mg/kg.
Simultanément, les rats reçoivent les produits à tester. Six heures plus tard, on effectue les dosages de façon traditionnelle sur des échantillons sanguins.

The next series deals with souris Swiss. Kind of series: Acute toxicity in mice (lethal dose 50, Behrens and Karber). As to conditions: dose 1,5g/kg, voie intrapéritonéale; mice observed 8 days. Format: in vivo.

Turning to `CC(C)(O)CS(=O)(=O)c1ccccc1` [Exemple 19], in the series on rats Wistar mâles, the “Cholestérol Estérifié” value is 1,09, the “Cholestérol Total” value is listed as 2,04, the Glucose is on record as 0,78 g/l and the Lipides totaux is on record as 7,62 g/l. Besides, in the series on rats Wistar mâles, the Trigly-cérides is 2,84 and the “Cholestérol Rapport E/T” value is 55,6.

As to `CCC(C)(O)CS(=O)(=O)c1ccccc1` (stereo not shown) [Exemple 20], in the series on rats Wistar mâles, the “Cholestérol Estérifié” value is recorded as 1,64, the “Cholestérol Total” value is reported as 2,20, the Glucose was 0,84 g/l and the Lipides totaux was 7,36 g/l. Further, in the series with rats Wistar mâles, the Trigly-cérides is on record as 2,07 and the “Cholestérol Rapport E/T” value was 76,8.

Turning to `O=S(=O)(CC1(O)CCCCC1)c1ccccc1` [Exemple 21], in the series with rats Wistar mâles, the “Cholestérol Estérifié” value is reported as 2,06, the “Cholestérol Total” value was 3,09, the Glucose is given as 0,89 g/l and the Lipides totaux is reported as 9,56 g/l. In addition, in the series on rats Wistar mâles, the Trigly-cérides is given as 2,23 and the “Cholestérol Rapport E/T” value is reported as 66,0.

In the case of `O=S(=O)(CC(O)c1ccccc1)c1ccccc1` (stereo not shown) [Exemple 22], in the series on rats Wistar mâles, the “Cholestérol Estérifié” value is recorded as 1,89, the “Cholestérol Total” value was 2,28, the Glucose is 1,18 g/l and the Lipides totaux is 8,50 g/l. For the same molecule, in the series with rats Wistar mâles, the Trigly-cérides was 3,95 and the “Cholestérol Rapport E/T” value is 82,4.

`O=S(=O)(CC(O)c1ccc(Cl)cc1)c1ccccc1` (stereo not shown) [Exemple 23]: the “animaux encore en vie” value in the series on souris Swiss is given as 5 animaux sur 5 sont encore en vie.

As to `O=S(=O)(CC(O)c1ccc(F)cc1)c1ccccc1` (stereo not shown) [Exemple 24], in the series with rats Wistar mâles, the “Cholestérol Estérifié” value is on record as 0,98, the “Cholestérol Total” value was 1,48, the Glucose is listed as 1,12 g/l and the Lipides totaux was 15,30 g/l. Further, in the series with rats Wistar mâles, the Trigly-cérides is recorded as 1,80 and the “Cholestérol Rapport E/T” value is 69,40.

As for `CC(C(O)(c1ccccc1)c1ccccc1)S(=O)(=O)c1ccccc1` (stereo not shown) [Exemple 27], the “animaux encore en vie” value in the series with souris Swiss is given as 5 animaux sur 5 sont encore en vie.

In the case of `O=S(=O)(CC(O)c1ccccc1)c1ccc(F)cc1` (stereo not shown) [Exemple 28], in the series on rats Wistar mâles, the “Cholestérol Estérifié” value was 0,66, the “Cholestérol Total” value was 1,24, the Glucose is given as 1,22 g/l and the Lipides totaux is 6,0 g/l. Moreover, in the series with rats Wistar mâles, the Trigly-cérides is recorded as 4,31 and the “Cholestérol Rapport E/T” value is 54,4.

As for `O=S(=O)(CC1(O)CCCCC1)c1ccc(F)cc1` [Exemple 32], in the series with rats Wistar mâles, the “Cholestérol Estérifié” value is on record as 0,73, the “Cholestérol Total” value was 1,14, the Glucose is listed as 0,92 g/l and the Lipides totaux was 10,99 g/l. For the same molecule, in the series on rats Wistar mâles, the Trigly-cérides is 4,00 and the “Cholestérol Rapport E/T” value is on record as 65,17.

Consider `O=S(=O)(CCCO)c1ccccc1` [Exemple 40], for which, in the series on rats Wistar mâles, the “Cholestérol Estérifié” value is 0,99, the “Cholestérol Total” value was 1,56, the Glucose is listed as 0,93 g/l and the Lipides totaux was 3,76 g/l. Besides, in the series with rats Wistar mâles, the “Cholestérol Rapport E/T” value is recorded as 61,2.

Take `CC(C)(Oc1ccc(Cl)cc1)C(=O)OCCCS(=O)(=O)c1ccccc1` [Exemple 47]: in the series with rats Wistar mâles, the “Cholestérol Estérifié” value was 0,90, the “Cholestérol Total” value is reported as 1,52, the Glucose was 0,97 g/l and the Lipides totaux is on record as 10,28 g/l. For the same molecule, in the series with rats Wistar mâles, the Trigly-cérides was 4,56 and the “Cholestérol Rapport E/T” value is 59,99.
